Results as given in patent US20070254863A1 (priority 2006, published 2007).
Like-named read-outs stand apart in the source and are kept apart here.

What was measured:
[1] = target: T1, hamster SUR1 (Cricetus cricetus, UniProt Q09427); assay: In vitro binding affinity to rodent KATP channels: SUR1 ([3H]glibenclamide displacement, COS cell membranes)
T1 construct: expressed in transfected cells; host or cells: COS-1 cells, transient (pcDNA vector)
Experimental: 1. In Vitro Binding Affinity of the Test Compounds to Rodent KATP Channels
Competitive binding experiments were performed to characterize the affinity of the test compounds for the binding sites for sulfonylureas and KATP channel openers (KCOS) on hamster SUR1. To assess the affinity for the sulfonylurea site, membranes from COS-cells transiently expressing hamster SUR1 were incubated in the presence of [^3H]glibenclamide with increasing concentrations of test compounds. […] For each test compound four displacement curves were measured (+/−MgATP from the human and hamster isoform). Per curve 9-15 distinct concentrations were tested covering the relevant range. All measurements were repeated at least 5 times in independent experiments.
(§1) [^3H]glibenclamide (specific activity 51 Ci mmol^−1) was obtained from NEN (Dreieich, Germany). Where needed, stock solutions were prepared in dimethylsulfoxide with a final solvent concentration in the media below 1%.
(§2) SUR- or Kir6.x isoforms were used either subcloned in the pcDNA (hamster SUR1, mouse Kir6.2) or pCMV vector (rat SUR2A, SUR2B).
(§3) For transfection, the cells were incubated 4 hours in a Tris-buffered salt solution containing DNA (5-10 μg/ml) plus DEAE-dextran (1 mg/ml), 2 min in HEPES-buffered salt solution plus dimethylsulfoxide (10%) and 4 hours in DMEM-HG plus chloroquine (100 μM). Cells were then returned to DMEM-HG plus 10% FCS. […] For binding experiments, resuspended membranes (final protein concentration 5-50 μg/ml) were incubated in “Tris-buffer” (50 mM, pH 7.4) containing either [^3H]glibenclamide (final concentration 0.3 nM or 3 nM and nonspecific binding defined by 100 nM or 1 μM glibenclamide for SUR1 or SUR2Y1205S-isoforms, respectively) or [^3H]P1075 (final concentration 3 nM, nonspecific binding defined by 100 μM pinacidil) and increasing concentrations of the test compounds. The free Mg^2+ concentration were kept close to 0.7 mM. […] Incubations were carried out for 1 h at room temperature and were terminated by rapid filtration through Whatman GF/B filters.
(§4) The inhibition constant (Ki value) of the test substances was calculated from the respective IC50 value, and was stated as the negative logarithmic value thereof (pKi).

[2] = target: rat SUR2A (Rattus norvegicus, UniProt Q63563); assay: In vitro binding affinity to rodent KATP channels: SUR2A ([3H]P1075 / [3H]glibenclamide displacement, COS cell membranes)
Chain of rat SUR2A (Q63563 whole entry): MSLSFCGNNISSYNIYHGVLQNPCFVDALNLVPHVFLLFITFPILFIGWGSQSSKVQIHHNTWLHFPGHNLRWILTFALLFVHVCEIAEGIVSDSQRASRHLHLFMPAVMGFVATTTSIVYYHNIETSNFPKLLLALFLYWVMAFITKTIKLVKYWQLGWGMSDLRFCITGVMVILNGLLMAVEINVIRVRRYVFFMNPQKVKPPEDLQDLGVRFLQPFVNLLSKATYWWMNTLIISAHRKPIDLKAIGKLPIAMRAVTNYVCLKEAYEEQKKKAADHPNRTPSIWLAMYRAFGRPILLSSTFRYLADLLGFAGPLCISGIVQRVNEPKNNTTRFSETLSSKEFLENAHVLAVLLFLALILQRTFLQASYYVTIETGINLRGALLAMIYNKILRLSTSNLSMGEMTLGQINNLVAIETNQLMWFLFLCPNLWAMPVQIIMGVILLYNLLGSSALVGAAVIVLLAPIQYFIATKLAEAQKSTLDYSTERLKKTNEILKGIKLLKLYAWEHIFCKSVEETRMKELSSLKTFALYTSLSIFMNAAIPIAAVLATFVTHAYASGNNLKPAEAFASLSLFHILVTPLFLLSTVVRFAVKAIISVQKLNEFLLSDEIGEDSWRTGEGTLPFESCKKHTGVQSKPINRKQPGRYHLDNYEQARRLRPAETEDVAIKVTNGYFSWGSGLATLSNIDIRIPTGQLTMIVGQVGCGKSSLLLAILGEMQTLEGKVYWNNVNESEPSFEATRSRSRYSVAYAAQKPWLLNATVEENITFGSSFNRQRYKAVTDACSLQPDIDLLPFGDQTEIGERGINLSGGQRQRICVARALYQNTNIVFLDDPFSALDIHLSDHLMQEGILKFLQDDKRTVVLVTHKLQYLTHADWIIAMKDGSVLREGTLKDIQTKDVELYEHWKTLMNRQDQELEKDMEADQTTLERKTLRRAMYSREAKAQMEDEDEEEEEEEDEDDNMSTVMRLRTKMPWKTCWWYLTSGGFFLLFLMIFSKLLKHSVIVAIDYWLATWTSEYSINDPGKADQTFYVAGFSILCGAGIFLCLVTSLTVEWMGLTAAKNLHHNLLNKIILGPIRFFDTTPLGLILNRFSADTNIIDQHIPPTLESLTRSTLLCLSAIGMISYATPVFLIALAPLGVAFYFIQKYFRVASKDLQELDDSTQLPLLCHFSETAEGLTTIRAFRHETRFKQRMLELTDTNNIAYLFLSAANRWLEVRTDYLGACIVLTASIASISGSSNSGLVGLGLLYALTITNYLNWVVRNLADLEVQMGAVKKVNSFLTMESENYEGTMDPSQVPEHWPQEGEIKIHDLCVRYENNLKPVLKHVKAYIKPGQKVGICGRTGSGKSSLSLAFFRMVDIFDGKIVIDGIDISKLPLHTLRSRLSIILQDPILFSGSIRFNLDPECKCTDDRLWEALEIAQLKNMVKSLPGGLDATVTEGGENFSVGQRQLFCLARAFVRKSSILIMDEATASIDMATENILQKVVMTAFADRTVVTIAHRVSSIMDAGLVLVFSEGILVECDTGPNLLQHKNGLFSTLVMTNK
Experimental: Therefore, two strategies can be used to detect binding to the sulfonylurea site on SUR2A.
Membranes from COS-cells transiently expressing rat SUR2A were incubated in the presence of the radioligands with increasing concentrations of test compounds as described above. […] For each test compound four displacement curves were measured (displacement of [^3H]P1075 from the rat isoform of the wild type receptor and displacement of [^3H]glibenclamide from the rat isoform of SUR2AY1205S). Per curve 9-15 distinct concentrations were tested covering the relevant range. All measurements were repeated at least 5 times in independent experiments.
as §1, §2, §3, §4

[3] = target: human cannabinoid CB2 receptor (Homo sapiens, UniProt P34972); assay: biochemical; format: binding
Chain of human cannabinoid CB2 receptor (P34972 whole entry): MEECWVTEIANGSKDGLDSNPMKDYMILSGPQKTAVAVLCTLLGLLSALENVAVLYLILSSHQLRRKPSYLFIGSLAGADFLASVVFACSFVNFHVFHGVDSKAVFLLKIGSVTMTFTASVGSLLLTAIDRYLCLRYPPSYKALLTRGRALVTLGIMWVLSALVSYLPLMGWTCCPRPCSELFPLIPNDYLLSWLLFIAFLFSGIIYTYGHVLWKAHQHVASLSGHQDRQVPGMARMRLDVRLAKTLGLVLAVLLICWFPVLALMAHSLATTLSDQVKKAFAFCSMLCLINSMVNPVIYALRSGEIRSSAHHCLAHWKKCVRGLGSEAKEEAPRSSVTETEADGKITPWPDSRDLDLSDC
Experimental: 3. In Vitro Binding Affinity of the Test Compounds to CB2 Receptors
After incubation of a freshly prepared cell membrane preparation with the [^3H]-ligand, with or without the addition of the compounds described herein, separation of bound and free ligand is performed by filtration over glass-fiber filters. Radioactivity on the filter is measured by liquid scintillation counting.

[4] = hamster SUR1 in COS cell membranes, read-out: Affinity to SUR 1 (converted)
[5] = rat SUR2A in COS cell membranes
[6] = cloned human CB2 receptor expressed in CHO cells, read-out: Affinity to CB2 (converted)

T1 sequence (Q09427 whole entry): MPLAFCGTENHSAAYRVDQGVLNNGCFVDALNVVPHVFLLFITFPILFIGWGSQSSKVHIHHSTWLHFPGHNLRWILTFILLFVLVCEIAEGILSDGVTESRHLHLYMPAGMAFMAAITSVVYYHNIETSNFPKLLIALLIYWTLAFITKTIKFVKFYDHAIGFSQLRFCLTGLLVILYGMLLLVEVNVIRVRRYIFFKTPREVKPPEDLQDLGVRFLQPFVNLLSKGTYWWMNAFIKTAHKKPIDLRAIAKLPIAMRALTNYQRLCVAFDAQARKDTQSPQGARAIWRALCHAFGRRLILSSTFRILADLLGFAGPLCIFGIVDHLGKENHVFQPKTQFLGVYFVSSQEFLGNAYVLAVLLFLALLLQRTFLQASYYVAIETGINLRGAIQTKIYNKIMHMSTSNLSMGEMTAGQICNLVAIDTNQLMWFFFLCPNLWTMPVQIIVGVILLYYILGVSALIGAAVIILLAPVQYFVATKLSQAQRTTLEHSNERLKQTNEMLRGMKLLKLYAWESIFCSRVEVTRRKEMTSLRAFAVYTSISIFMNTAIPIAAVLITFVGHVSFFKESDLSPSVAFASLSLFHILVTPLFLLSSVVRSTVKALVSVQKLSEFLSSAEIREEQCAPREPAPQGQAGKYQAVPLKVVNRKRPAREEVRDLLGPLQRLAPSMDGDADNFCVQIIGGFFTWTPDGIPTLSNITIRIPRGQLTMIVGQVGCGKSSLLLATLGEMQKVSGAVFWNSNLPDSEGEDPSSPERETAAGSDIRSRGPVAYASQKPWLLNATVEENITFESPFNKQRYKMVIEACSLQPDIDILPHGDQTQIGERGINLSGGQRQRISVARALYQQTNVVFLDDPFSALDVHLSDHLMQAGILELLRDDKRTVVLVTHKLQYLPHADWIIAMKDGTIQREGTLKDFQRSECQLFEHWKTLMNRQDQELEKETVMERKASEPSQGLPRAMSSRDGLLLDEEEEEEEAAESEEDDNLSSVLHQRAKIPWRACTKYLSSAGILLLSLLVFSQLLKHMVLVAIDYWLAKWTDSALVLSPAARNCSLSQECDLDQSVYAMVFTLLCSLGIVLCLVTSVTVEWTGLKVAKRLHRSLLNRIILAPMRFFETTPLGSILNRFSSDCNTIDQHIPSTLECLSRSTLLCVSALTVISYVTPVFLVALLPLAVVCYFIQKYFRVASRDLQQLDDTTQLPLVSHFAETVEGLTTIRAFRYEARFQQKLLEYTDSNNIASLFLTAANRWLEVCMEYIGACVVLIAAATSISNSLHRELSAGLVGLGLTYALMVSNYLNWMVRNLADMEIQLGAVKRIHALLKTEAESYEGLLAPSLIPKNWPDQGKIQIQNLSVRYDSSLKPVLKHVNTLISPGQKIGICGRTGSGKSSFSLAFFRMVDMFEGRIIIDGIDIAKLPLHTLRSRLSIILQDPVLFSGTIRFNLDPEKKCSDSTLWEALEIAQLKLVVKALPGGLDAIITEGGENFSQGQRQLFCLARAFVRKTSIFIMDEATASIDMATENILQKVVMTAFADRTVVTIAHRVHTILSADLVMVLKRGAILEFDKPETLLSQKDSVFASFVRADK

`C[C@H](NS(C)(=O)=O)c1ccc(S(=O)(=O)c2ccc(Cl)cc2S(=O)(=O)c2ccccc2F)cc1` [N-(1-{4-[4-Chloro-2-(2-fluoro-benzenesulfonyl)-benzenesulfonyl]-phenyl}-ethyl)-methanesulfonamide, reference compound] gave a Ki [1, 4] of 1.26 µM, a pKi [2] of 4.7 and a Ki [3] of 0.000501 µM.

In the case of `CSc1c(C(=O)NC2CCCCC2)nc(-c2ccc(Cl)cc2Cl)n1-c1ccc(Cl)cc1` [1-(4-Chloro-phenyl)-2-(2,4-dichloro-phenyl)-5-methylsulfanyl-1H-imidazole-4-carboxylic acid cyclohexylamide], the Ki [1, 4] is reported as 0.501 µM, the pKi [2, 5] is reported as 5.8 and the “Affinity to CB2” value [3] is reported as 6.6.

In the case of `Cc1c(C(=O)NN2CCCCCC2)nc(-c2ccc(Cl)cc2Cl)n1-c1ccc(Cl)cc1` [1-(4-Chloro-phenyl)-2-(2,4-dichloro-phenyl)-5-methyl-1H-imidazole-4-carboxylic acid azepan-1-ylamide], the Ki [1, 4] is reported as 6.31 µM, the pKi [2] is reported as 5.7 and the Ki [3, 6] is reported as 0.0251 µM.

With `Cn1c(C(=O)NN2CCCCC2)nc(-c2cc(Cl)ccc2Cl)c1-c1ccc(Cl)cc1` [5-(4-Chloro-phenyl)-4-(2,5-dichloro-phenyl)-1-methyl 1H-imidazole-2-carboxylic acid piperidin-1-ylamide] the Ki [1, 4] was 25.1 µM, the pKi [2] was 5.0 and the Ki [3, 6] was 0.398 µM.

With `CCc1c(C(=O)NN2CCCCC2)nc(-c2ncccc2C)n1-c1ccc(Cl)cc1` [1-(4-Chloro-phenyl)-5-ethyl-2-(3-methyl-pyridin-2-yl)-1H-imidazole-4-carboxylic acid piperidin-1-ylamide] the Ki [1, 4] was 100 µM, the pKi [2] was 4.8 and the Ki [3, 6] was 0.251 µM.

Compound `O=C(NN1CCCCC1)c1cn(-c2ccc(Cl)cc2)c(-c2ccc(Cl)cc2Cl)n1` [1-(4-Chloro-phenyl)-2-(2,4-dichloro-phenyl)-1H-imidazole-4-carboxylic acid piperidin-1-ylamide] has a Ki [1, 4] of 31.6 µM, a pKi [2] of 5.3 and a Ki [3, 6] of 0.631 µM.

`O=C(NN1CCCCC1)c1nc(-c2ccc(Cl)cc2Cl)n(-c2ccc(Cl)cc2)c1CO` [1-(4-Chloro-phenyl)-2-(2,4-dichloro-phenyl)-5-hydroxymethyl-1H-imidazole-4-carboxylic acid piperidin-1-ylamide] gave a Ki [1, 4] of 100 µM, a pKi [2] of 4.7 and a Ki [3, 6] of 0.631 µM.

In the case of `CNC(=NS(=O)(=O)N1CCCCC1)N1CC(c2cccc(F)c2)C(c2ccc(Cl)cc2)=N1` (stereo not drawn) [Piperidine-1-sulfonic acid [3-(4-chloro-phenyl)-4-(3-fluoro-phenyl)-4,5-dihydro-pyrazol-1-yl]-methylamino-methyleneamide], the Ki [1, 4] is reported as 31.6 µM, the pKi [2] is reported as 6.3 and the Ki [3, 6] is reported as 0.794 µM.

`O=C(NN1CCCCC1)C1=NN(c2ccc(Cl)cc2Cl)C(c2ccc(Cl)cc2)C1` (stereo not drawn) [5-(4-Chloro-phenyl)-1-(2,4-dichloro-phenyl)-4,5-dihydro-1H-pyrazole-3-carboxylic acid piperidine-1-ylamide] gave a Ki [1, 4] of 3.98 µM, a pKi [2] of 5.6 and a Ki [3, 6] of 0.794 µM.

With `Cc1c(C=C(c2cc(F)cc(F)c2)S(C)(=O)=O)nn(-c2ccc(Cl)cc2Cl)c1-c1ccc(Br)cc1` [5-(4-Bromo-phenyl)-1-(2,4-dichloro-phenyl)-3-(2-(3,5-difluoro-phenyl)-2-methanesulfonyl-vinyl]-4-methyl-1H-pyrazole] the Ki [1, 4] was 100 µM, the pKi [2] was 4.0 and the Ki [3, 6] was 1.26 µM.

Compound `CCc1c(C(=O)NC2CCCCC2)nc(-c2ccc(C)n2C)n1-c1ccccc1` [2-(1,5-Dimethyl-1H-pyrrol-2-yl)-5-ethyl-1-phenyl-1H-imidazole-4-carboxylic acid cyclohexylamide] has a Ki [1, 4] of 100 µM, a pKi [2, 5] of 4.0 and a Ki [3, 6] of 0.158 µM.

For `CN1CCC(CNC(=NS(=O)(=O)c2ccc(Cl)cc2)N2CC(c3ccccc3)C(c3ccc(Cl)cc3)=N2)C1` (stereo not drawn) [4-Chloro-N-{[3-(4-chloro-phenyl)-4-phenyl-4,5-dihydro-pyrazol-1-yl]-[(1-methyl-pyrrolidin-3-ylmethyl)-amino]-methylene]-benzenesulfonamide], the Ki [1, 4] was 1 µM, the pKi [2] was 4.8 and the Ki [3, 6] was 1 µM.

For `CC(C)(CO)CN/C(=N\S(=O)(=O)c1ccc(Cl)cc1)N1CC(c2ccccc2)C(c2ccc(Cl)cc2)=N1` (stereo not drawn) [4-Chloro-N-[[3-(4-chloro-phenyl)-4-phenyl-4,5-dihydro-pyrazol-1-yl]-(3-hydroxy-2,2-dimethyl-propylamino)-methylene]-benzenesulfonamide], the Ki [1, 4] was 31.6 µM, the pKi [2] was 5.4 and the Ki [3, 6] was 0.794 µM.

`CCc1c(C(=O)NC2CCCCC2)nc(-c2ncccc2C)n1-c1ccc(Cl)cc1` [1-(4-Chloro-phenyl)-5-ethyl-2-(3-methyl-pyridin-2-yl)-1H-imidazole-4-carboxylic acid cyclohexylamide] was tested, and the Ki [1] was 100 µM, the pKi [2] was 5.5 and the Ki [3] was 0.794 µM.

`N=C(N)C1=NN(c2ccc(Cl)cc2)C(c2ccccc2)C1` (stereo not drawn) [1-(4-Chloro-phenyl)-5-phenyl-4,5-dihydro-1H-pyrazole-3-carboxamidine] gave a Ki [1, 4] of 100 µM, a pKi [2] of 4.0 and a Ki [3, 6] of 0.501 µM.

With `O=S(=O)(N=C(NCc1cccnc1)N1CC(c2ccccc2)C(c2ccc(Cl)cc2)=N1)c1ccc(Cl)cc1` (stereo not drawn) [4-Chloro-N-{[3-(4-chloro-phenyl)-4-phenyl-4,5-dihydro-pyrazol-1-yl]-[(pyridin-3-ylmethyl)-amino]-methylene}-benzenesulfonamide] the Ki [1, 4] was 1.26 µM, the pKi [2] was 5.7 and the Ki [3, 6] was 0.501 µM.

`N/C(=N\S(=O)(=O)c1ccc(Cl)cc1)N1C[C@@H](c2ccccc2)C(c2ccc(Cl)cc2)=N1` (stereo in doubt) [N-{Amino-[3-(4-chloro-phenyl)-4-phenyl-4,5-dihydro-pyrazol-1-yl]-methylene}-4-chloro-benzenesulfonamide] gave a Ki [1, 4] of 0.794 µM, a pKi [2] of 5.4 and a Ki [3] of 0.158 µM.

Compound `CSc1c(C(=O)NN2CCCCC2)nc(-c2ccc(Cl)cc2Cl)n1-c1ccc(Cl)cc1` [1-(4-Chloro-phenyl)-2-(2,4-dichloro-phenyl)-5-methylsulfanyl-1H-imidazole-4-carboxylic acid piperidin-1-ylamide] has a Ki [1, 4] of 7.94 µM, a pKi [2] of 5.6 and a Ki [3, 6] of 1 µM.

`Cc1c(C(=O)NN2CCCCC2)nc(-c2ccc(Cl)cc2Cl)n1-c1ccccn1` [2-(2,4-Dichloro-phenyl)-5-methyl-1-pyridin-2-yl-1H-imidazole-4-carboxylic acid piperidin-1-ylamide] was tested, and the Ki [1, 4] was 100 µM, the pKi [2] was 4.1 and the Ki [3, 6] was 0.631 µM.

Work on `O=C(NN1CCCCC1)c1nc(-c2ccc(Cl)cc2Cl)n(-c2ccc(Cl)cc2)c1CF` [1-(4-Chloro-phenyl)-2-(2,4-dichloro-phenyl)-5-fluoromethyl-1H-imidazole-4-carboxylic acid piperidin-1-ylamide] yielded a Ki [1, 4] of 6.31 µM, a pKi [2] of 5.5 and a Ki [3, 6] of 0.794 µM.

With `NC(=NS(=O)(=O)c1ccc(Cl)cc1)N1CC(c2ccccc2)C(c2ccc(Cl)cc2)=N1` (stereo not drawn) [N-{Amino-[3-(4-chloro-phenyl)-4-phenyl-4,5-dihydro-pyrazol-1-yl]-methylene}-4-chloro-benzenesulfonamide] the Ki [1, 4] was 1 µM, the pKi [2] was 5.1 and the Ki [3] was 0.398 µM.

Compound `NC(Cc1ccc(Cl)c(Cl)c1)C(=O)N1CC(c2ccccc2)C(c2ccc(Cl)cc2)=N1` (stereo not drawn) [2-Amino-1-[3-(4-chloro-phenyl)-4-phenyl-4,5-dihydro-pyrazol-1-yl]-3-(3,4-dichloro-phenyl)-propan-1-one] has a Ki [1, 4] of 3.98 µM, a pKi [2] of 4.8 and a Ki [3, 6] of 0.631 µM.

Compound `CCc1c(C(=O)NN2CCCCC2)nc(-c2ccc(Cl)cc2Cl)n1-c1ccc(Cl)cc1` [1-(4-Chloro-phenyl)-2-(2,4-dichloro-phenyl)-5-ethyl-1H-imidazol-4-carboxylic acid piperidin-1-ylamide] has a Ki [1, 4] of 5.01 µM, a pKi [2] of 5.5 and a Ki [3] of 0.501 µM.

`CCc1c(C(=O)NC2CCCCC2)nc(-c2ccc(Cl)cc2Cl)n1-c1ccc(Br)cc1` [1-(4-Bromo-phenyl)-2-(2,4-dichloro-phenyl)-5-ethyl-1H-imidazole-4-carboxylic acid cyclohexylamide] showed a Ki [1, 4] of 100 µM, a pKi [2] of 5.1 and a Ki [3, 6] of 0.2 µM.
